# Laboratory results from US9758485B2, “Compounds for controlling arthropods” (priority 2013, dated 2017).
# Tested on: not listed separately
# Assay: logP determination by HPLC on a reversed-phase column (C18), EEC Directive 79/831 Annex V.A8
# Type: physicochemical
# Conditions: HPLC on reversed-phase column (C18)
row,SMILES,log P
1,O=C(NC1CC1)c1cc(-c2cnn(-c3c(Cl)cc(C(F)(C(F)(F)F)C(F)(F)F)cc3OC(F)(F)F)c2)cnc1Cl [I-T3-189],4.3
2,O=C(NC1CC1)c1cc(-c2cnn(-c3c(Cl)cc(C(F)(C(F)(F)F)C(F)(F)F)cc3OC(F)F)c2)cnc1Cl [I-T3-196],3.9

# Same assay, conditions: HPLC, reversed-phase C18, acetonitrile/water with formic acid, 55° C.
row,SMILES,logP
1,Cc1cc(C(F)(C(F)(F)F)C(F)(F)F)cc(C)c1-c1cnn(-c2ccc(Cl)c(C(=O)NC3(C#N)CC3)c2)c1 [I-T4-2],4.6
2,Cc1cc(C(F)(C(F)(F)F)C(F)(F)F)cc(C(F)(F)F)c1-c1cc(-c2cnc(Cl)c(C(=O)NC3(C#N)CC3)c2)on1 [I-T22-4],4.4
3,Cc1cc(C(F)(C(F)(F)F)C(F)(F)F)cc(C(F)(F)F)c1-c1cc(-c2cnc(Cl)c(C(=O)NC3CC3)c2)on1 [I-T22-6],4.5

# Tested on: Rhipicephalus sanguineus
# Assay: Rhipicephalus sanguineus - in vitro contact tests with adult brown dog ticks
# Type: in vivo
# Conditions: application rate 5 μg/cm^2, after 48 h (dead or moribund)
# Method: Rhipicephalus sanguineus—In Vitro Contact Tests with Adult Brown Dog Ticks
# (§1) For the coating of the test tubes, 9 mg of active ingredient are first dissolved in 1 ml of acetone p.a. and then diluted to the desired concentration with acetone p.a. 250 μl of the solution are distributed homogeneously on the inner walls and base of a 25 ml test tube by turning and rocking on an orbital shaker (rocking rotation at 30 rpm for 2 h). With 900 ppm active ingredient solution and internal surface 44.7 cm^2, given homogeneous distribution, an area-based dose of 5 μg/cm^2 is achieved.
# After the solvent has evaporated off, the tubes are populated with 5-10 adult dog ticks (Rhipicephalus sanguineus), sealed with a perforated plastic lid and incubated in a horizontal position in the dark at room temperature and ambient humidity. After 48 h, efficacy is determined. To this end, the ticks are knocked to the floor of the tube and incubated on a hotplate at 45-50° C. for not more than 5 min. Ticks which remain motionless on the floor or move in such an uncoordinated manner that they are unable to deliberately avoid the heat by climbing upwards are considered to be dead or moribund.
# An efficacy of 100% means that all the ticks were dead or moribund. 0% efficacy means that none of the ticks had been harmed.
row,SMILES,efficacy
1,O=C(NC1CC1)c1cc(-c2cnn(-c3c(Cl)cc(C(F)(C(F)(F)F)C(F)(F)F)cc3OC(F)(F)F)c2)cnc1Cl [I-T3-189],100%
2,O=C(NC1CC1)c1cc(-c2cnn(-c3c(Cl)cc(C(F)(C(F)(F)F)C(F)(F)F)cc3OC(F)F)c2)cnc1Cl [I-T3-196],100%
3,Cc1cc(C(F)(C(F)(F)F)C(F)(F)F)cc(C)c1-c1cnn(-c2ccc(Cl)c(C(=O)NC3(C#N)CC3)c2)c1 [I-T4-2],100%
4,Cc1cc(C(F)(C(F)(F)F)C(F)(F)F)cc(C(F)(F)F)c1-c1cc(-c2cnc(Cl)c(C(=O)NC3(C#N)CC3)c2)on1 [I-T22-4],100%
5,Cc1cc(C(F)(C(F)(F)F)C(F)(F)F)cc(C(F)(F)F)c1-c1cc(-c2cnc(Cl)c(C(=O)NC3CC3)c2)on1 [I-T22-6],100%

# Tested on: Ctenocephalides felis
# Assay: Ctenocephalides felis - in vitro contact tests with adult cat fleas
# Type: in vivo
# Conditions: application rate 5 μg/cm^2 (=500 g/ha), after 48 h (dead or moribund)
# Method: Ctenocephalides felis—In Vitro Contact Tests with Adult Cat Fleas
# as §1, with “surface area” for “surface”
# After the solvent has evaporated off, the tubes are populated with 5-10 adult cat fleas (Ctenocephalides felis), sealed with a perforated plastic lid and incubated in a horizontal position at room temperature and ambient humidity. After 48 h, efficacy is determined. To this end, the test tubes are stood upright and the fleas are knocked to the base of the tube. Fleas which remain motionless at the base or move in an uncoordinated manner are considered to be dead or moribund.
# 100% efficacy means that all the fleas were dead or moribund. 0% efficacy means that no fleas were harmed.
row,SMILES,efficacy
1,O=C(NC1CC1)c1cc(-c2cnn(-c3c(Cl)cc(C(F)(C(F)(F)F)C(F)(F)F)cc3OC(F)(F)F)c2)cnc1Cl [I-T3-189],100%
2,O=C(NC1CC1)c1cc(-c2cnn(-c3c(Cl)cc(C(F)(C(F)(F)F)C(F)(F)F)cc3OC(F)F)c2)cnc1Cl [I-T3-196],100%
3,Cc1cc(C(F)(C(F)(F)F)C(F)(F)F)cc(C)c1-c1cnn(-c2ccc(Cl)c(C(=O)NC3(C#N)CC3)c2)c1 [I-T4-2],100%

# Tested on: Boophilus microplus
# Assay: Boophilus microplus - injection test
# Type: in vivo
# Conditions: application rate 20 μg/animal; injected into engorged adult female ticks; laying of fertile eggs, after 7 days
# Procedure, shortened: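 Read-out is % efficacy from fertile egg laying at 7 days: 100% means no tick laid fertile eggs, 0% means all eggs fertile. Each of 5 engorged adult females received 1 μl of DMSO test solution injected abdominally.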
row,SMILES,efficacy
1,Cc1cc(C(F)(C(F)(F)F)C(F)(F)F)cc(C)c1-c1cnn(-c2ccc(Cl)c(C(=O)NC3(C#N)CC3)c2)c1 [I-T4-2],100%
2,Cc1cc(C(F)(C(F)(F)F)C(F)(F)F)cc(C(F)(F)F)c1-c1cc(-c2cnc(Cl)c(C(=O)NC3(C#N)CC3)c2)on1 [I-T22-4],100%
3,Cc1cc(C(F)(C(F)(F)F)C(F)(F)F)cc(C(F)(F)F)c1-c1cc(-c2cnc(Cl)c(C(=O)NC3CC3)c2)on1 [I-T22-6],100%

# Tested on: Boophilus microplus Parkhurst strain, SP-resistant
# Assay: Boophilus microplus - dip test
# Type: in vivo
# Conditions: application rate 100 ppm; dip of engorged adult female ticks; laying of fertile eggs, after 7 days
# Method: Boophilus microplus—Dip Test
# Test animals: cattle ticks (Boophilus microplus) Parkhurst strain, SP-resistant
# (§2) Solvent: dimethyl sulphoxide
# 10 mg of active ingredient are dissolved in 0.5 ml of dimethyl sulphoxide. For the purpose of producing a suitable formulation, the active ingredient solution is diluted with water to the concentration desired in each case.
# This active ingredient formulation is pipetted into tubes. 8-10 adult engorged female cattle ticks (Boophilus microplus) are transferred into a further tube with holes. The tube is immersed into the active ingredient formulation, and all the ticks are completely wetted. After the liquid has run out, the ticks are transferred on filter discs into plastic dishes and stored in a climate-controlled room.
# Efficacy is assessed after 7 days by laying of fertile eggs. Eggs which are not visibly fertile are stored in a climate-controlled cabinet until the larvae hatch after about 42 days. An efficacy of 100% means that none of the ticks has laid any fertile eggs; 0% means that all the eggs are fertile.
row,SMILES,efficacy
1,Cc1cc(C(F)(C(F)(F)F)C(F)(F)F)cc(C(F)(F)F)c1-c1cc(-c2cnc(Cl)c(C(=O)NC3(C#N)CC3)c2)on1 [I-T22-4],100%
2,Cc1cc(C(F)(C(F)(F)F)C(F)(F)F)cc(C(F)(F)F)c1-c1cc(-c2cnc(Cl)c(C(=O)NC3CC3)c2)on1 [I-T22-6],100%

# Tested on: Ctenocephalides felis
# Assay: Ctenocephalides felis - oral test
# Type: in vivo
# Conditions: application rate 100 ppm in citrated cattle blood; adult fleas; kill after 2 days
# Procedure, shortened: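 Percentage mortality recorded at 2 days, where 0% means no fleas killed. Compound dissolved in DMSO and diluted in citrated cattle blood, which roughly 20 unfed adult C. felis imbibe via a parafilm membrane.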
row,SMILES,efficacy
1,O=C(NC1CC1)c1cc(-c2cnn(-c3c(Cl)cc(C(F)(C(F)(F)F)C(F)(F)F)cc3OC(F)(F)F)c2)cnc1Cl [I-T3-189],100%
2,Cc1cc(C(F)(C(F)(F)F)C(F)(F)F)cc(C)c1-c1cnn(-c2ccc(Cl)c(C(=O)NC3(C#N)CC3)c2)c1 [I-T4-2],100%
3,Cc1cc(C(F)(C(F)(F)F)C(F)(F)F)cc(C(F)(F)F)c1-c1cc(-c2cnc(Cl)c(C(=O)NC3(C#N)CC3)c2)on1 [I-T22-4],100%
4,Cc1cc(C(F)(C(F)(F)F)C(F)(F)F)cc(C(F)(F)F)c1-c1cc(-c2cnc(Cl)c(C(=O)NC3CC3)c2)on1 [I-T22-6],95%

# Tested on: Lucilia cuprina
# Assay: Lucilia cuprina test
# Type: in vivo
# Conditions: application rate 100 ppm; L1 larvae in minced horsemeat; kill after 2 days
# Procedure, shortened: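 Mortality (%) of first-instar blowfly larvae, about 20 per vessel, recorded 2 days after exposure to compound-treated minced horsemeat. Compound dissolved in dimethyl sulphoxide, then water-diluted to the desired concentration.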
row,SMILES,efficacy
1,O=C(NC1CC1)c1cc(-c2cnn(-c3c(Cl)cc(C(F)(C(F)(F)F)C(F)(F)F)cc3OC(F)(F)F)c2)cnc1Cl [I-T3-189],100%
2,Cc1cc(C(F)(C(F)(F)F)C(F)(F)F)cc(C)c1-c1cnn(-c2ccc(Cl)c(C(=O)NC3(C#N)CC3)c2)c1 [I-T4-2],100%
3,Cc1cc(C(F)(C(F)(F)F)C(F)(F)F)cc(C(F)(F)F)c1-c1cc(-c2cnc(Cl)c(C(=O)NC3CC3)c2)on1 [I-T22-6],100%

# Tested on: Musca domestica
# Assay: Musca domestica test
# Type: in vivo
# Conditions: application rate 100 ppm; adult houseflies; kill after 2 days
# Method: as §2
# To produce an appropriate active ingredient formulation, 10 mg of active ingredient are mixed with 0.5 ml of dimethyl sulphoxide, and the concentrate is diluted with water to the desired concentration.
# Vessels containing a sponge treated with sugar solution and the active ingredient formulation of the desired concentration are populated with 10 adult houseflies (Musca domestica).
# After 2 days, the kill in % is determined. 100% means that all of the flies have been killed; 0% means that none of the flies have been killed.
row,SMILES,efficacy
1,O=C(NC1CC1)c1cc(-c2cnn(-c3c(Cl)cc(C(F)(C(F)(F)F)C(F)(F)F)cc3OC(F)(F)F)c2)cnc1Cl [I-T3-189],100%
2,Cc1cc(C(F)(C(F)(F)F)C(F)(F)F)cc(C)c1-c1cnn(-c2ccc(Cl)c(C(=O)NC3(C#N)CC3)c2)c1 [I-T4-2],100%
3,Cc1cc(C(F)(C(F)(F)F)C(F)(F)F)cc(C(F)(F)F)c1-c1cc(-c2cnc(Cl)c(C(=O)NC3CC3)c2)on1 [I-T22-6],90%
